Results published in ChEMBL document CHEMBL1201862, “PubChem BioAssay data set” (2004).
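96-well plates; 48 h exposure; 5 concentrations. Endpoints by linear interpolation between flanking doses. Not reached: highest tested concentration assigned. Abbreviation: GI50, concentration required for 50% inhibition of growth.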 Calls of active or inactive are those of the source. Cut-off read from the data, not from the text of the source: active = GI50 up to about 1.1 µM and inactive = higher.

Legend:
Assay in all cases: NCI tumour cell line growth inhibition, 48 h
[1] = system: IGROV-1
[2] = system: MDA-MB-435
[3] = system: OVCAR-5
[4] = system: SN12C
[5] = system: SK-MEL-5
[6] = system: ACHN
[7] = system: Malme-3M
[8] = system: SF-539
[9] = system: COLO 205
[10] = system: UACC-62
[11] = system: SNB-19
[12] = system: RPMI-8226
[13] = system: EKVX
[14] = system: HT-29
[15] = system: NCI-H460
[16] = system: DU-145
[17] = system: UACC-257
[18] = system: MDA-MB-231
[19] = system: BT-549
[20] = system: MCF7
[21] = system: NCI/ADR-RES
[22] = system: LOX IMVI
[23] = system: NCI-H23
[24] = system: SK-MEL-28
[25] = system: KM12
[26] = system: HCT-116
[27] = system: A549
[28] = system: HL-60
[29] = system: OVCAR-8
[30] = system: SNB-75
[31] = system: HCC 2998
[32] = system: NCI-H226
[33] = system: OVCAR-3
[34] = system: HCT-15
[35] = system: A498
[36] = system: SK-OV-3
[37] = system: TK-10
[38] = system: SF-295
[39] = system: MDA-N
[40] = system: U-251
[41] = system: K562
[42] = system: UO-31
[43] = system: CAKI-1
[44] = system: MOLT-4
[45] = system: T47D
[46] = system: OVCAR-4
[47] = system: SF-268
[48] = system: 786-0
[49] = system: RXF 393
[50] = system: HOP-62
[51] = system: CCRF-CEM
[52] = system: SW-620
[53] = system: NCI-H522
[54] = system: HOP-92
[55] = system: PC-3
[56] = system: SR
[57] = system: SK-MEL-2
[58] = system: M14

COc1ccc2c3c1OC1C(OC)(OC)CC4(C=C2)CN(C)CCC314 (stereo unspecified)
GI50 [1]: > 100 µM (inactive) | GI50 [2]: > 100 µM (inactive) | GI50 [3]: > 100 µM (inactive) | GI50 [4]: > 100 µM (inactive) | GI50 [5]: > 100 µM (inactive) | GI50 [6]: > 100 µM (inactive) | GI50 [7]: > 100 µM (inactive) | GI50 [8]: > 100 µM (inactive) | GI50 [9]: > 100 µM (inactive) | GI50 [10]: > 100 µM (inactive) | GI50 [11]: > 100 µM (inactive) | GI50 [12]: > 100 µM (inactive) | GI50 [13]: > 100 µM (inactive) | GI50 [14]: > 100 µM (inactive) | GI50 [15]: > 100 µM (inactive) | GI50 [16]: > 100 µM (inactive) | GI50 [17]: > 100 µM (inactive) | GI50 [18]: > 100 µM (inactive) | GI50 [19]: > 100 µM (inactive) | GI50 [20]: > 100 µM (inactive) | GI50 [21]: > 100 µM (inactive) | GI50 [22]: > 100 µM (inactive) | GI50 [23]: > 100 µM (inactive) | GI50 [24]: > 100 µM (inactive) | GI50 [25]: > 100 µM (inactive) | GI50 [26]: > 100 µM (inactive) | GI50 [27]: > 100 µM (inactive) | GI50 [28]: 20.3 µM (inactive) | GI50 [29]: > 100 µM (inactive) | GI50 [30]: > 100 µM (inactive) | GI50 [31]: > 100 µM (inactive) | GI50 [32]: > 100 µM (inactive) | GI50 [33]: > 100 µM (inactive) | GI50 [34]: > 100 µM | GI50 [35]: 28.6 µM (inactive) | GI50 [36]: > 100 µM (inactive) | GI50 [37]: > 100 µM (inactive) | GI50 [38]: > 100 µM (inactive) | GI50 [39]: > 100 µM (inactive) | GI50 [40]: > 100 µM (inactive) | GI50 [41]: 41.9 µM (inactive) | GI50 [42]: > 100 µM (inactive) | GI50 [43]: > 100 µM (inactive) | GI50 [44]: > 100 µM (inactive) | GI50 [45]: > 100 µM (inactive) | GI50 [46]: > 100 µM (inactive) | GI50 [47]: > 100 µM (inactive) | GI50 [48]: > 100 µM (inactive) | GI50 [49]: > 100 µM (inactive) | GI50 [50]: > 100 µM (inactive) | GI50 [51]: 30.4 µM (inactive) | GI50 [52]: > 100 µM (inactive)

CCOC1(OCC)N=C(N)C2(C#N)C3(C(=O)N(C(C)C)N=C3C)C12C#N (stereo unspecified)
GI50 [1]: > 100 µM (inactive) | GI50 [2]: > 100 µM (inactive) | GI50 [3]: > 100 µM (inactive) | GI50 [4]: > 100 µM (inactive) | GI50 [6]: > 100 µM (inactive) | GI50 [7]: > 100 µM (inactive) | GI50 [8]: > 100 µM (inactive) | GI50 [9]: > 100 µM (inactive) | GI50 [10]: > 100 µM (inactive) | GI50 [53]: 79.1 µM (inactive) | GI50 [54]: > 100 µM (inactive) | GI50 [11]: > 100 µM (inactive) | GI50 [55]: > 100 µM (inactive) | GI50 [12]: > 100 µM (inactive) | GI50 [13]: > 100 µM (inactive) | GI50 [56]: 45.4 µM (inactive) | GI50 [14]: > 100 µM (inactive) | GI50 [15]: > 100 µM (inactive) | GI50 [16]: > 100 µM (inactive) | GI50 [57]: > 100 µM (inactive) | GI50 [17]: > 100 µM (inactive) | GI50 [18]: > 100 µM (inactive) | GI50 [19]: > 100 µM (inactive) | GI50 [20]: > 100 µM (inactive) | GI50 [21]: > 100 µM (inactive) | GI50 [23]: > 100 µM (inactive) | GI50 [24]: > 100 µM (inactive) | GI50 [25]: > 100 µM (inactive) | GI50 [26]: > 100 µM (inactive) | GI50 [58]: > 100 µM (inactive) | GI50 [27]: > 100 µM (inactive) | GI50 [28]: 0.893 µM (active) | GI50 [29]: > 100 µM (inactive) | GI50 [30]: > 100 µM (inactive) | GI50 [31]: > 100 µM (inactive) | GI50 [32]: > 100 µM (inactive) | GI50 [33]: 44.3 µM (inactive) | GI50 [34]: > 100 µM | GI50 [35]: > 100 µM (inactive) | GI50 [36]: > 100 µM (inactive) | GI50 [38]: > 100 µM (inactive) | GI50 [40]: > 100 µM (inactive) | GI50 [41]: > 100 µM (inactive) | GI50 [42]: > 100 µM (inactive) | GI50 [43]: > 100 µM (inactive) | GI50 [44]: > 100 µM (inactive) | GI50 [45]: > 100 µM (inactive) | GI50 [46]: > 100 µM (inactive) | GI50 [47]: > 100 µM (inactive) | GI50 [48]: > 100 µM (inactive) | GI50 [49]: > 100 µM (inactive) | GI50 [50]: > 100 µM (inactive) | GI50 [51]: 38.5 µM (inactive) | GI50 [52]: > 100 µM (inactive)
